US20050267016A1, “CD-10 activated prodrug compounds” (priority 2001, published 2005)
Read-outs that look alike come from different tables or passages of the source.

Assays:
[1] = system: HT-29 (colon carcinoma) cells; assay: cells; assay type: cell-based, human; settings: 48 hours total incubation, read-out: IC50 HT29
Protocol: (§1) Adherent cells, LNCaP (prostate carcinoma), HT-29 (colon carcinoma) and PC-3 (prostate carcinoma), were cultured in DMEM media containing 10% heat inactivated fetal calf serum (FCS). On the day of the study the cells were detached from the plate with a trypsin solution. The collected cells were washed and resuspended at a concentration of 0.25×10^6 cells/ml in DMEM containing 10% FCS. 100 μl of cell suspension were added to 96 well plates and the plates were incubated for 3 hours to allow the cells to adhere. […] The plates were then incubated for 24 hours, pulsed with 10 μl of a 100 μCi/ml ^3H-thymidine and incubated for an additional 24 hours (total incubation time 48 hours). The plates were harvested using a 96 well Harvester (Packard Instruments) and counted on a Packard Top Count Counter. Four parameter logistic curves were fitted to the ^3H-thymidine incorporation as a function of drug molarity using Prism software to determine IC50 values.

[2] = system: LNCaP (prostate carcinoma) cells
Protocol: as §1
as §1, with “carcinoma), PC-3 (prostate” for “carcinoma), HT-29 (colon”, “and 22 RV1” for “and PC-3”, “with 1:0” for “with 10”
(§2) The effect of two known inhibitors of CD10 on prodrug activity in Ramos, LNCaP and Ball-1 cells was evaluated. The IC50 of Suc-βAla-Ile-Ala-Leu-Dox was determined in the presence of increasing concentration of the CD10 inhibitors, phosphoramidon and thiorphan.

normal mice = assay: Single dose Maximum Tolerated Dose (MTD) study, 28 days; assay type: in vivo; settings: for single-dose MTD, fold higher than doxorubicin alone: 28 days
Protocol: (§3) The mice were observed daily for 28 days and body weights measured twice weekly.
as §3
(§4) In the single dose Maximum Tolerated Dose (MTD) studies, groups of normal mice were administered intravenous bolus doses of the prodrug. The mice were observed daily for 28 days and body weights measured twice weekly. The MTD was estimated to be equal to the highest dose that produced no death in mice after 28 days.

[3] = as above; assay type: in vivo, mice; settings: mouse, in vivo; intravenous bolus, normal mice, 28 days
Protocol: as §3, §3, §4

LNCaP xenografts = assay: LNCaP xenograft in SCID mice, Q6DX2, equitoxic comparison (Example 27); assay type: in vivo, C.B-17.SCID mice
Protocol: All compounds except Suc-βAla-Leu-Ala-Leu-Dox (three levels) were dosed at two levels with the goal to get a dose response for all compounds.
Knowing that the LNCaP tumor bearing nude mice have weight loss, we chose very conservative dose levels for each compound estimated to be well-tolerated equitoxic doses based on earlier studies and SD-MTD results. The high dose level for repeat dosing is usually 80% of their SD-MTD, and the low dose level is 80% of the high dose level. Accordingly, groups of ten male CD17.SCID mice, subcutaneously injected with 2.5 million LNCaP cells, were treated intravenously with the compounds at the levels described in Table 22 at six day intervals for a total of two identical doses (Q6DX2).
LNCaP tumors grew well in SCID mice, but the SCID mice with LNCaP tumor xenografts experienced severe weight loss, as 80% of control mice had more than 25% of weight loss by the end of the study. Nevertheless, the efficacy of different treatments at approximately equitoxic levels were compared based on the time it took for 50% of mice to reach toxic weight loss and the total numbers of mice with toxic weight loss at the end of study.

Ramos cells (CD10pos) = assay: cells; settings: for Ratio Ball-1:Ramos: ratio of IC50
Protocol: (§5) Suspension cells, BALL-1, Ramos and Namalwa cells were cultured in RPMI media containing 10% heat inactivated fetal calf serum (FCS). On the day of the study, the cells were collected, washed and resuspended at a concentration of 0.5×10^6 cells/ml in RPMI containing 10% FCS. 100 µl of cell suspension was added to 96 well plates. […] Finally 10 μl of a 100 μCi/ml ^3H-thymidine was added per well and the plates were incubated for 24 hours. The plates were harvested using a 96 well Harvester (Packard Instruments) and counted on a Packard Top Count counter. Four parameter logistic curves were fitted to the ^3H-thymidine incorporation as a function of drug molarity using Prism software to determine IC50 values.
as §2

BALL-1 cells (CD10neg) = assay: cells
Protocol: as §5, §2

LNCaP tumors = assay: LNCaP xenograft in SCID mice, Q6DX2 (Example 24); assay type: in vivo, CB17.SCID mice; parameters: key to Tumor Weight: tumor weight in mg
Protocol: The mean tumor weight was approximately 200 mg at Day 0. […] Studies were terminated at Day 60.

[4] = system: CD10 transfected CHO cells, Clone #7; assay: 3H thymidine proliferation assay, CD10 transfected CHO Clone #7
Protocol: (§6) The fully assembled coding region was sub-cloned into a mammalian expression vector, downstream of the hCMV-MIE promoter. DNA sequence analysis confirmed sequence identity with the coding sequence of human CD10 (Genbank accession number Y00811). The expression plasmid was linearized and stably transfected into CHO—S cells. CD10 expressing transfectant clones were selected under 500 ug/mL of hygromycin and screened by flow cytometry for cell-surface CD10 expression using a commercially available anti-CD10-FITC antibody.

Parental CHO cells = assay: 3H thymidine proliferation assay, parental CHO; assay type: cell-based, Chinese Hamster; settings: for Ratio Suc-β-Ala-Ile-Ala-Leu/Dox: Parental CHO, ratio of IC50; for IC50: Cricetulus griseus
[5] = system: CD10 transfected CHO cells, DB4; assay: 3H thymidine proliferation assay, CD10 transfected CHO DB4
Protocol: as §6

CC[C@H](C)[C@H](NC(=O)CCC(=O)O)C(=O)N[C@@H](C)C(=O)N[C@@H](CC(C)C)C(=O)N[C@H]1C[C@H](O[C@H]2C[C@](O)(C(=O)CO)Cc3c(O)c4c(c(O)c32)C(=O)c2c(OC)cccc2C4=O)O[C@@H](C)[C@H]1O [Suc-Ile-Ala-Leu-Dox]
IC50 [1]: 47000 nM
Ratio PC-3:LNCaP ([2]; ratio of IC50): 83
IC50 ([2]; read-out: IC50 LNCAP, 48 hours total incubation): 1100 nM
single-dose MTD, fold higher than doxorubicin alone (normal mice): at least 16 fold
28-day single-dose Maximum Tolerated Dose (MTD) (normal mice; intravenous bolus, normal mice): > 117 mg/kg
MTD [3]: ≥ 66 mg/kg
Time: 50% Weight Loss (LNCaP xenografts; 75 mg/kg Q6DX2): 26 days
Time: 100% Weight Loss (LNCaP xenografts; 75 mg/kg Q6DX2): 43 days
Time: 50% Weight Loss (LNCaP xenografts; 94 mg/kg Q6DX2): 19 days
Time: 100% Weight Loss (LNCaP xenografts; 94 mg/kg Q6DX2): 36 days
Ratio Ball-1:Ramos (Ramos cells (CD10pos)): 4
IC50 (Ramos cells (CD10pos); read-out: IC50 Ramos, 24 hours): 6430 nM
IC50 (BALL-1 cells (CD10neg); read-out: IC50 Ball-1, 24 hours): 26000 nM

COc1cccc2c1C(=O)c1c(O)c3c(c(O)c1C2=O)C[C@@](O)(C(=O)CO)C[C@@H]3O[C@H]1C[C@H](NC(=O)[C@H](CC(C)C)NC(=O)[C@H](C)NC(=O)[C@H](CC(C)C)NC(=O)CCNC(=O)CCC(=O)O)[C@H](O)[C@H](C)O1 [Suc-βAla-Leu-Ala-Leu-Dox]
Toxic Endpt. (LNCaP tumors; 40 mg/kg Q6DX2): 0
Tumor Weight (LNCaP tumors; 40 mg/kg Q6DX2, Day 12): 244 ± 25
Survivor (day 22) (LNCaP tumors; 40 mg/kg Q6DX2, groups of ten): 10
Toxic Endpt. (LNCaP tumors; 50 mg/kg Q6DX2): 5
Tumor Weight (LNCaP tumors; 50 mg/kg Q6DX2, Day 12): 168 ± 29
Survivor (day 22) (LNCaP tumors; 50 mg/kg Q6DX2, groups of ten): 5
Toxic Endpt. (LNCaP tumors; 62 mg/kg Q6DX2): 6
Tumor Weight (LNCaP tumors; 62 mg/kg Q6DX2, Day 12): 196 ± 22
Survivor (day 22) (LNCaP tumors; 62 mg/kg Q6DX2, groups of ten): 4
IC50 [2]: 510 nM
IC50 ([2]; 48 h): 870 nM
shift of IC50 ([2]; LNCaP cells treated with 100 nM of phosphoramidon (data not shown)): 7 fold
Ratio PC-3:LNCaP ([2]; ratio of IC50): 32
Time: 50% Weight Loss (LNCaP xenografts; 40 mg/kg Q6DX2): 33 days
Time: 100% Weight Loss (LNCaP xenografts; 40 mg/kg Q6DX2): 54 days
Time: 50% Weight Loss (LNCaP xenografts; 50 mg/kg Q6DX2): 19 days
Time: 100% Weight Loss (LNCaP xenografts; 50 mg/kg Q6DX2): 40 days
Time: 50% Weight Loss (LNCaP xenografts; 62 mg/kg Q6DX2): 15 days
Time: 100% Weight Loss (LNCaP xenografts; 62 mg/kg Q6DX2): 33 days
IC50 (Ramos cells (CD10pos)): 840 nM
IC50 (Ramos cells (CD10pos); 24 h): 6930 nM
Ratio Ball-1:Ramos (Ramos cells (CD10pos)): 2
IC50 (BALL-1 cells (CD10neg); 24 h): 17000 nM

CC[C@H](C)[C@H](NC(=O)CCNC(=O)CCC(=O)O)C(=O)N[C@@H](C)C(=O)N[C@@H](CC(C)C)C(=O)N[C@H]1C[C@H](O[C@H]2C[C@](O)(C(=O)CO)Cc3c(O)c4c(c(O)c32)C(=O)c2c(OC)cccc2C4=O)O[C@@H](C)[C@H]1O [Suc-βAla-Ile-Ala-Leu-Dox]
IC50 ([2]; 48 h): 150 nM
Ratio Suc-β-Ala-Ile-Ala-Leu/Dox ([2]; LnCap, ratio of IC50): 3
Ratio PC-3:LNCaP ([2]; ratio of IC50): 300
animals euthanized due to treatment-related toxicity (normal mice; 100 mg/kg, Day 21, groups of five): two
animals euthanized due to treatment-related toxicity (normal mice; 125 mg/kg, Day 14, groups of five): four
single-dose MTD, fold higher than doxorubicin alone (normal mice): approximately 10 fold
MTD [3]: 40 mg/kg
Ratio Suc-β-Ala-Ile-Ala-Leu/Dox ([4]; Clone #7, ratio of IC50): 17
% Weight Loss at the end of study (LNCaP xenografts; 50 mg/kg Q6DX2): 80%
Time: 50% Weight Loss (LNCaP xenografts; 50 mg/kg Q6DX2): 33 days
Time: 50% Weight Loss (LNCaP xenografts; 62 mg/kg Q6DX2): 12 days
Time: 100% Weight Loss (LNCaP xenografts; 62 mg/kg Q6DX2): 33 days
Ratio Suc-β-Ala-Ile-Ala-Leu/Dox (Parental CHO cells): 49
Ratio Suc-β-Ala-Ile-Ala-Leu/Dox (Parental CHO cells; listed as Suc-β-Ala-Ile-Ala-Leu): 96
Ratio Suc-β-Ala-Ile-Ala-Leu/Dox ([5]; DB4, ratio of IC50): 14
IC50 (Ramos cells (CD10pos); 24 h): 420 nM
Ratio Ball-1:Ramos (Ramos cells (CD10pos)): 120
IC50 (BALL-1 cells (CD10neg); 24 h): 50000 nM

COc1cccc2c1C(=O)c1c(O)c3c(c(O)c1C2=O)C[C@@](O)(C(=O)CO)C[C@@H]3O[C@H]1C[C@H](N)[C@H](O)[C@H](C)O1 [Doxorubicin, reference compound]
Toxic Endpt. (LNCaP tumors; 3 mg/kg Q6DX2): 1
% Tumor Growth Inhibition (LNCaP tumors; 3 mg/kg Q6DX2, Day 12): 21 ± 8%
Tumor Weight (LNCaP tumors; 3 mg/kg Q6DX2, Day 12): 328 ± 35
Survivor (day 22) (LNCaP tumors; 3 mg/kg Q6DX2, groups of ten): 9
Toxic Endpt. (LNCaP tumors; 4 mg/kg Q6DX2): 2
% Tumor Growth Inhibition (LNCaP tumors; 4 mg/kg Q6DX2, Day 12): 26 ± 6%
Tumor Weight (LNCaP tumors; 4 mg/kg Q6DX2, Day 12): 310 ± 25
Survivor (day 22) (LNCaP tumors; 4 mg/kg Q6DX2, groups of ten): 8
IC50 ([1]; Homo sapiens, HT-29): 52 nM
IC50 ([4]; Cricetulus griseus, CHO, read-out: IC50 Clone #7): 640 nM
% Weight Loss at the end of study (LNCaP xenografts; 3 mg/kg Q6DX2): 60%
Growth Inhibition (LNCaP xenografts; 3 mg/kg Q6DX2): 29%
Time: 50% Weight Loss (LNCaP xenografts; 3 mg/kg Q6DX2): 36 days
Growth Inhibition (LNCaP xenografts; 4 mg/kg Q6DX2): 29%
% Weight Loss at the end of study (LNCaP xenografts; 4 mg/kg Q6DX2, mice with toxic weight loss): 80%
Time: 50% Weight Loss (LNCaP xenografts; 4 mg/kg Q6DX2, time for 50% of mice to reach toxic weight loss): 33 days
IC50 (Parental CHO cells; CHO, Tables 25, 26, read-out: IC50 Parental CHO): 510 nM
IC50 (Parental CHO cells; CHO cells, average, read-out: average IC50 in CHO cells): 570 nM
IC50 ([5]; Cricetulus griseus, CHO, read-out: IC50 DB4): 310 nM
IC50 (Ramos cells (CD10pos); Homo sapiens, Ramos, 24 h, read-out: IC50 Ramos): 10 nM
IC50 (Ramos cells (CD10pos); Homo sapiens, Ramos, read-out: IC50 Ramos): 10 nM
IC50 (BALL-1 cells (CD10neg); Homo sapiens, BALL-1, 24 h, read-out: IC50 Ball-1): 20 nM
